The source made the active and inactive calls. The rule behind the calls is not given here.
Assays:
[1] = Terminal half life in Wistar Han rat at 1 mg/kg, iv administered as single dose; format: ADME, organism-based; conditions: in vivo, read-out: beta t1/2 (converted)
Rattus norvegicus [2] = assay: Toxicity in rat assessed as effect on heart rate administered as single dose; format: organism-based; conditions: in vivo
Canis familiaris [3] = assay: Toxicity in dog assessed as electrocardiogram changes administered as repeated dosing; format: organism-based, Canis lupus familiaris; conditions: in vivo
[4] = Terminal half life in Beagle dog at 1 mg/kg, iv administered as single dose; format: ADME, organism-based, Canis lupus familiaris; conditions: in vivo, read-out: beta t1/2 (converted)
[5] = Apparent intrinsic clearance in human hepatocytes; format: ADME, cell-based, Hepatocyte; conditions: read-out: CLH(app)
[6] = Clearance in Nu/Nu mouse plasma at 1 mg/kg, iv administered as single dose; format: ADME, organism-based
[7] = Oral bioavailability in Nu/Nu mouse at 1 mg/kg administered as single dose; format: ADME, organism-based; conditions: in vivo
Rattus norvegicus [8] = assay: Toxicity in rat assessed as effect on pulmonary system functions administered as single dose; format: organism-based; conditions: in vivo
Canis familiaris [9] = assay: Toxicity in dog assessed as effect on central nervous system functions administered as single dose; format: organism-based, Canis lupus familiaris; conditions: in vivo
Canis familiaris [10] = assay: Toxicity in dog assessed as effect on central nervous system functions administered as repeated dosing; format: organism-based, Canis lupus familiaris; conditions: in vivo
[11] = target: Tyrosine-protein kinase Tec (Homo sapiens) (UniProt P42680); assay: Inhibition of His-tagged full-length recombinant human TEC cytoplasmic domain expressed in Baculovirus expression system at 1 uM by FRET-based Z'-LYTE assay
Rattus norvegicus [12] = assay: Toxicity in rat assessed as effect on pulmonary system functions administered as repeated dosing; format: organism-based; conditions: in vivo
Rattus norvegicus [13] = assay: Toxicity in rat assessed as effect on central nervous system functions administered as single dose; format: organism-based; conditions: in vivo
[14] = Clearance in Wistar Han rat plasma at 1 mg/kg, iv administered as single dose; format: ADME, organism-based
[15] = Drug metabolism in human liver microsomes assessed as demethylation; format: ADME, microsome
[16] = target: Tyrosine-protein kinase TXK (Homo sapiens) (UniProt P42681); assay: Inhibition of GST-tagged full-length recombinant human TXK cytoplasmic domain expressed in Baculovirus expression system at 1 uM by FRET-based Z'-LYTE assay
[17] = Half life in Beagle dog blood at 1 uM by LC-MS/MS analysis; format: ADME, tissue-based, Canis lupus familiaris
Canis familiaris [18] = assay: Toxicity in dog assessed as effect on pulmonary system functions administered as repeated dosing; format: organism-based, Canis lupus familiaris; conditions: in vivo
[19] = target: Receptor tyrosine-protein kinase erbB-4 (Homo sapiens) (UniProt Q15303); assay: Inhibition of N-terminal GST-tagged recombinant human ErbB4 cytoplasmic domain (708 to 993 residues) expressed in Baculovirus expression system at 1 uM by FRET-based Z'-LYTE assay
[20] = Volume of distribution at steady state in Wistar Han rat at 1 mg/kg, iv administered as single dose; format: ADME, organism-based; conditions: in vivo, read-out: Vdss
Rattus norvegicus [21] = assay: Toxicity in rat assessed as electrocardiogram changes administered as repeated dosing; format: organism-based; conditions: in vivo
[22] = Apparent intrinsic clearance in rat microsomes; format: ADME, Microsome; conditions: read-out: CL(app)
Canis familiaris [23] = assay: Toxicity in dog assessed as effect on pulmonary system functions administered as single dose; format: organism-based, Canis lupus familiaris; conditions: in vivo
Canis familiaris [24] = assay: Toxicity in dog assessed as effect on blood pressure administered as repeated dosing; format: organism-based, Canis lupus familiaris; conditions: in vivo
[25] = Oral bioavailability in Beagle dog at 3 mg/kg administered as single dose; format: ADME, organism-based, Canis lupus familiaris; conditions: in vivo
Canis familiaris [26] = assay: Toxicity in dog assessed as body weight loss administered as repeated dosing for 91 days; format: organism-based, Canis lupus familiaris; conditions: in vivo, 2184 h
[27] = Apparent intrinsic clearance in human microsomes; format: ADME, Microsome; conditions: read-out: CL(app)
in vitro = conditions: human, liver microsomes
[28] = Apparent intrinsic hepatic clearance in mouse hepatocytes; format: ADME, cell-based, Hepatocyte; conditions: read-out: CLH(app)
Rattus norvegicus [29] = assay: Toxicity in rat assessed as effect on blood pressure administered as single dose; format: organism-based; conditions: in vivo
[30] = Volume of distribution at steady state in Beagle dog at 1 mg/kg, iv administered as single dose; format: ADME, organism-based, Canis lupus familiaris; conditions: in vivo, read-out: Vdss
[31] = Apparent intrinsic clearance in mouse microsomes; format: ADME, Microsome; conditions: read-out: CL(app)
[32] = Volume of distribution at steady state in Nu/Nu mouse at 1 mg/kg, iv administered as single dose; format: ADME, organism-based; conditions: in vivo, read-out: Vdss
[33] = Half life in human blood at 1 uM by LC-MS/MS analysis; format: ADME, tissue-based
CYP2C8 = CYP2C8 (Homo sapiens, UniProt P10632); assay: Inhibition of human CYP2C8 at 10 uM; format: ADME
CYP2C9 = CYP2C9 (Homo sapiens, UniProt P11712); assay: Inhibition of human CYP2C9 at 10 uM; format: ADME
Canis familiaris [34] = assay: Toxicity in dog assessed as effect on heart rate administered as single dose; format: organism-based, Canis lupus familiaris; conditions: in vivo
Rattus norvegicus [35] = assay: Toxicity in rat assessed as effect on central nervous system functions administered as repeated dosing; format: organism-based; conditions: in vivo
CYP1A2 = CYP1A2 (Homo sapiens, UniProt P05177); assay: Inhibition of human CYP1A2 at 10 uM; format: ADME
[36] = target: Proto-oncogene tyrosine-protein kinase ROS (Homo sapiens) (UniProt P08922); assay: Inhibition of GST-tagged recombinant human ROS cytoplasmic domain (1883 to 2347 residues) expressed in Baculovirus expression system at 1 uM by FRET-based Z'-LYTE assay
CYP2D6 = CYP2D6 (Homo sapiens, UniProt P10635); assay: Inhibition of human CYP2D6 at 10 uM; format: ADME
Rattus norvegicus [37] = assay: Toxicity in rat assessed as effect on heart rate administered as repeated dosing; format: organism-based; conditions: in vivo
[38] = Fraction unbound in mouse plasma at 2 uM by LC-MS/MS based equilibrium dialysis method; format: ADME, cell-free
[39] = Half life in Sprague-Dawley rat blood at 1 uM by LC-MS/MS analysis; format: ADME, tissue-based
[40] = Fraction unbound in dog plasma at 2 uM by LC-MS/MS based equilibrium dialysis method; format: ADME, cell-free, Canis lupus familiaris
Rattus norvegicus [41] = assay: Toxicity in rat assessed as effect on blood pressure administered as repeated dosing; format: organism-based; conditions: in vivo
[42] = target: Tyrosine-protein kinase BTK (Homo sapiens) (UniProt Q06187); assay: Inhibition of His-tagged full-length recombinant human BTK cytoplasmic domain expressed in Baculovirus expression system at 1 uM by FRET-based Z'-LYTE assay
[43] = Apparent intrinsic hepatic clearance in dog hepatocytes; format: ADME, cell-based, Canis lupus familiaris, Hepatocyte; conditions: read-out: CLH(app)
Rattus norvegicus [44] = assay: Toxicity in rat assessed as electrocardiogram changes administered as single dose; format: organism-based; conditions: in vivo
[45] = Time-dependent inhibition of CYP450 (unknown origin); format: ADME; conditions: human
[46] = Fraction unbound in human plasma at 2 uM by LC-MS/MS based equilibrium dialysis method; format: ADME, cell-free
[47] = Apparent intrinsic clearance in dog microsomes; format: ADME, Canis lupus familiaris, Microsome; conditions: read-out: CL(app)
Salmonella typhimurium = assay: Mutagenicity in Salmonella typhimurium by Ames test; format: toxicity, organism-based; conditions: salmonella enterica subsp. enterica serovar typhimurium
[48] = target: Cytoplasmic tyrosine-protein kinase BMX (Homo sapiens) (UniProt P51813); assay: Inhibition of His-tagged full-length recombinant human BMX cytoplasmic domain expressed in Baculovirus expression system at 1 uM by FRET-based Z'-LYTE assay
[49] = target: Tyrosine-protein kinase Fer (Homo sapiens) (UniProt P16591); assay: Inhibition of GST-tagged recombinant human FER catalytic domain (541 to 822 residues) expressed in Baculovirus expression system at 1 uM by FRET-based Z'-LYTE assay
Sequence of Tyrosine-protein kinase Fer (Homo sapiens) (P16591 whole entry, looked up, the tested form may be a part): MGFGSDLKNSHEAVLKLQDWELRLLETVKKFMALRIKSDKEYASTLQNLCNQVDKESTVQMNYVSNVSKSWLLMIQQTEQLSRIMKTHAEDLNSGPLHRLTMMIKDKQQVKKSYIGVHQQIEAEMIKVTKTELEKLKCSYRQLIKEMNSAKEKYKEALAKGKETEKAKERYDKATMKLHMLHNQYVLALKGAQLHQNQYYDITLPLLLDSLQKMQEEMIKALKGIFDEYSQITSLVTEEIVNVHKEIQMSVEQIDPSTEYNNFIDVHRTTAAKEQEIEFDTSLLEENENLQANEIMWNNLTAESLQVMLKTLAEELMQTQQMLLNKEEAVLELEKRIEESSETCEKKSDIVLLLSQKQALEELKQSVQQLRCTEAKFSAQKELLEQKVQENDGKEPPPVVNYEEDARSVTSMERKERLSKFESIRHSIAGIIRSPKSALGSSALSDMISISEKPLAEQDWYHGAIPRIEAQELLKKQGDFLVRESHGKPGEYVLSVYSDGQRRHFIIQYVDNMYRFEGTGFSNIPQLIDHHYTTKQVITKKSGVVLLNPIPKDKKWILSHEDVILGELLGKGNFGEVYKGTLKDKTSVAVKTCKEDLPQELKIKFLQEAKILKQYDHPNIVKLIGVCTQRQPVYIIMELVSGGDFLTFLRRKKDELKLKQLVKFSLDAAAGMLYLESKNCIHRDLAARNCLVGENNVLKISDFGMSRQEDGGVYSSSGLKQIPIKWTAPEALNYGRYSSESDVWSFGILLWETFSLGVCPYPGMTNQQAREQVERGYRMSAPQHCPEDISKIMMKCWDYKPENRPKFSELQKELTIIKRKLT

Sequence of Receptor tyrosine-protein kinase erbB-4 (Homo sapiens) (Q15303 whole entry, the tested form may be a part): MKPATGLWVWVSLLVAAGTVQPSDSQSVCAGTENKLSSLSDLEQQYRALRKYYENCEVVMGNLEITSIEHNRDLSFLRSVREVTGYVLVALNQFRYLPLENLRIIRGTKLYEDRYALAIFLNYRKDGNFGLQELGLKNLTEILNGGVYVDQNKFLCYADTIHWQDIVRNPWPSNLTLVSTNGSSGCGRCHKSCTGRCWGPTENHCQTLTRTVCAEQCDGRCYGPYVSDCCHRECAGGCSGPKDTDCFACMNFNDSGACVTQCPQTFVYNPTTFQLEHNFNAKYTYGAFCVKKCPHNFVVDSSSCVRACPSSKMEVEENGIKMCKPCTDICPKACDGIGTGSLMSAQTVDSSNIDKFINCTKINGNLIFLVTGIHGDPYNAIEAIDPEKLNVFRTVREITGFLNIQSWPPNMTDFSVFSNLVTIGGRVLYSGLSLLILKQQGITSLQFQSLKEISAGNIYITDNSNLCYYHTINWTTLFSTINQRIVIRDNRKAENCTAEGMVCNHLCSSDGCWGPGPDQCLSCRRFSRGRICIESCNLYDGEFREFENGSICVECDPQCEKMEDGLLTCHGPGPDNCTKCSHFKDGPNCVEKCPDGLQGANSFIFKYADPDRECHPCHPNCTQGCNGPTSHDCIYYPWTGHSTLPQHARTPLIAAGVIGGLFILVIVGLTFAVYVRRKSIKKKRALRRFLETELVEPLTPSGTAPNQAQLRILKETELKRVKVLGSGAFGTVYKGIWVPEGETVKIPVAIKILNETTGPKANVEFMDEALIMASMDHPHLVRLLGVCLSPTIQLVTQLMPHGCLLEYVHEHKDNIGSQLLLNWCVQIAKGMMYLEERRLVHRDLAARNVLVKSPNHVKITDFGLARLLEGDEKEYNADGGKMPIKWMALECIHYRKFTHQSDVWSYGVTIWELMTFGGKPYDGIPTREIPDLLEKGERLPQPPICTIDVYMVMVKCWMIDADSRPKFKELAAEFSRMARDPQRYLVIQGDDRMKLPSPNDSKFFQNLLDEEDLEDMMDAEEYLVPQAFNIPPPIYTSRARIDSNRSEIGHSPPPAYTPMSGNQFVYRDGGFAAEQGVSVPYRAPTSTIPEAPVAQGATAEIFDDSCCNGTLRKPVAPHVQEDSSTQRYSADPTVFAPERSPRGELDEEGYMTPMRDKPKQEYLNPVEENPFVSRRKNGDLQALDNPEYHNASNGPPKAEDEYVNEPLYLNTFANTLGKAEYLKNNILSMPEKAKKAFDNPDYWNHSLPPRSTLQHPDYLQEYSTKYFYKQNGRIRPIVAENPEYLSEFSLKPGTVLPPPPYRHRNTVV
Sequence of CYP1A2 (P05177 whole entry, the tested form may be a part): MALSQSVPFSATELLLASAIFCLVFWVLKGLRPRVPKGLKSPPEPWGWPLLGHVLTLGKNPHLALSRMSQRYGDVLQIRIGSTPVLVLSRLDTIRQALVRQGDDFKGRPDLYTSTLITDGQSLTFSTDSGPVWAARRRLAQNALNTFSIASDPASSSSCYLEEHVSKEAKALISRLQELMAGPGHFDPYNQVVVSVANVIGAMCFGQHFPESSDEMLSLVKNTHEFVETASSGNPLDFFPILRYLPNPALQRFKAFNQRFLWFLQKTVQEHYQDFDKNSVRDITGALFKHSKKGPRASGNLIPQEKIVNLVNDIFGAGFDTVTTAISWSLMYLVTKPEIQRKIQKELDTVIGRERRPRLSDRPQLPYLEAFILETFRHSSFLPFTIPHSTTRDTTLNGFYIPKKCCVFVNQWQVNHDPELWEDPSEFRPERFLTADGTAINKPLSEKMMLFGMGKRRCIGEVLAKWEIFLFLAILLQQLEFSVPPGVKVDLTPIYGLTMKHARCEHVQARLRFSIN
Sequence of CYP2D6 (P10635 whole entry): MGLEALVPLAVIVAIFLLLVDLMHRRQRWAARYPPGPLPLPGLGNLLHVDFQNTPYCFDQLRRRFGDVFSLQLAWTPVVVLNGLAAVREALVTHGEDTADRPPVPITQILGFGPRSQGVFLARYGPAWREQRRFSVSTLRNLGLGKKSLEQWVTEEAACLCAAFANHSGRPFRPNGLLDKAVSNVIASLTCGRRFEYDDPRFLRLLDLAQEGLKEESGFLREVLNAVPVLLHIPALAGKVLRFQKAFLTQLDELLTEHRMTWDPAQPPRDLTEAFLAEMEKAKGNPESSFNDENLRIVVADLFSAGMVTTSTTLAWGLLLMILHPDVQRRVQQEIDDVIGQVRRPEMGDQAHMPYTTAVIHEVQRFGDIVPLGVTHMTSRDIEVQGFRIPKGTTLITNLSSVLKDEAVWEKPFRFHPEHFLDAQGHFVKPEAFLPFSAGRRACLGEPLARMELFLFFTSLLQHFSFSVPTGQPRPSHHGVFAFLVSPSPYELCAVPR
Sequence of Tyrosine-protein kinase BTK (Homo sapiens) (Q06187 whole entry, the tested form may be a part): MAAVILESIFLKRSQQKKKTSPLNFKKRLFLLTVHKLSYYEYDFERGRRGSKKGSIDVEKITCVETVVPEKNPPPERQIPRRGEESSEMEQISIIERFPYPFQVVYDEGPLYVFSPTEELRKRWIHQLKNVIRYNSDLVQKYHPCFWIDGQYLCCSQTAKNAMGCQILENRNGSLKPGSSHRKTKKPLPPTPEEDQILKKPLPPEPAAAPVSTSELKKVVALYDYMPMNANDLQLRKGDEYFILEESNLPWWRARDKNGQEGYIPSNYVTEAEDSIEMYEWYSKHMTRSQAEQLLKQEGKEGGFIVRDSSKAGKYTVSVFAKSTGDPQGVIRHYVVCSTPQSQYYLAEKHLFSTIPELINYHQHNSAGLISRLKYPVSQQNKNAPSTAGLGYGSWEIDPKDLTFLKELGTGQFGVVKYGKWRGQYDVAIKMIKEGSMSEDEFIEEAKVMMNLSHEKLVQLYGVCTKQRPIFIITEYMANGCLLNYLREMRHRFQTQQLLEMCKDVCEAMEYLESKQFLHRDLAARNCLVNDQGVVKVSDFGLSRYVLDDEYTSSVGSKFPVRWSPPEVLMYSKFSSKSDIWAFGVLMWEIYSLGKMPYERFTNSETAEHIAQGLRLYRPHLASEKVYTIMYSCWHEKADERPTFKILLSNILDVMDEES
Sequence of Tyrosine-protein kinase TXK (Homo sapiens) (P42681 whole entry, the tested form may be a part): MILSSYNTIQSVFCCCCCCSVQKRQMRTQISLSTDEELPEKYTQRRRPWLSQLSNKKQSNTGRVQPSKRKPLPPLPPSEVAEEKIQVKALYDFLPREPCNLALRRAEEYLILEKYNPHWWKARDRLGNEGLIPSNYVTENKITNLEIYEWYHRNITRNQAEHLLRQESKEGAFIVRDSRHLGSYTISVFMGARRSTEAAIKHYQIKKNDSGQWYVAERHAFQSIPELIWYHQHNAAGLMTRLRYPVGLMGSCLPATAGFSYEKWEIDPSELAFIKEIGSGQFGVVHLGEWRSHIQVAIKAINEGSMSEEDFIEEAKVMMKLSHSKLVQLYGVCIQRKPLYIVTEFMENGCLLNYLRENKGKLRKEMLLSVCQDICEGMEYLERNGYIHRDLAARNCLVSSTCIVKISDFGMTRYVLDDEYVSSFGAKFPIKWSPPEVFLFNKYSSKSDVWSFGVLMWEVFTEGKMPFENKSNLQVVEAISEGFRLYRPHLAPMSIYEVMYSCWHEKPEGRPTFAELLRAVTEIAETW
Sequence of CYP2C9 (P11712 whole entry): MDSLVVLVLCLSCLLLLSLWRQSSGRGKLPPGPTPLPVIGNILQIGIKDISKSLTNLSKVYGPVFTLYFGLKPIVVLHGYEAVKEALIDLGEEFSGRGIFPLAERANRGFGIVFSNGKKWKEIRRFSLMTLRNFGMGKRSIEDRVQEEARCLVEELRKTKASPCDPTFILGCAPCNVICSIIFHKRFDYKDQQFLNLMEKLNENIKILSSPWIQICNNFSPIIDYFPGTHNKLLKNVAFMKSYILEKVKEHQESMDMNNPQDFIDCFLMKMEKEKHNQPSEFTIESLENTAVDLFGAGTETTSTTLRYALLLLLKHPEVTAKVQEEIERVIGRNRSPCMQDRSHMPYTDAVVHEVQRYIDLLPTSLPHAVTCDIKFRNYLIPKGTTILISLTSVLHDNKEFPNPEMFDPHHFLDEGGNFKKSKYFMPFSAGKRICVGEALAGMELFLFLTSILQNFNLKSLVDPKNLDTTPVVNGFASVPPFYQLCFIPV

## C=CC(=O)N[C@@H]1CN(c2nc(Nc3cn(C)nc3OC)c3ncn(C)c3n2)C[C@H]1F [MAVELERTINIB]
[1]
  half-life: 0.28 h
Rattus norvegicus [2]
  Activity: Non-Toxic
Canis familiaris [3]
  Activity: Non-Toxic
[4]
  half-life: 1.3 h
[5]
  CLint scaled: 3 mL/min/kg
[6]
  clearance: 53 mL/min/kg
[7]
  bioavailability: 60%
Rattus norvegicus [8]
  Activity: Non-Toxic
Canis familiaris [9]
  Activity: Non-Toxic
Canis familiaris [10]
  Activity: Non-Toxic
[11]
  inhibition: > 50%
Rattus norvegicus [12]
  Activity: Non-Toxic
Rattus norvegicus [13]
  Activity: Non-Toxic
[14]
  clearance: 49 mL/min/kg
[15]
  Drug metabolism: Metabolite_Detected
[16]
  inhibition: > 50%
[17]
  half-life at 1 µM: 4.65 h
Canis familiaris [18]
  Activity: Non-Toxic
[19]
  inhibition: > 50%
[20]
  Vd: 0.66 L/kg
Rattus norvegicus [21]
  Activity: Non-Toxic
[22]
  CLint scaled: 141 mL/min/kg
Canis familiaris [23]
  Activity: Non-Toxic
Canis familiaris [24]
  Activity: Non-Toxic
[25]
  bioavailability: 66%
Canis familiaris [26]
  Activity: Non-Toxic
[27]
  CLint scaled: < 6 mL/min/kg
In vitro
  microsomal CLint at […], 1 µM: 8 µL/min/mg
[28]
  CLint scaled: 196 mL/min/kg
Rattus norvegicus [29]
  Activity: Non-Toxic
[30]
  Vd: 0.94 L/kg
[31]
  CLint scaled: 74 mL/min/kg
[32]
  Vd: 1.48 L/kg
[33]
  half-life at 1 µM: 5.8 h
CYP2C8
  inhibition at 10 µM: < 30%
CYP2C9
  inhibition at 10 µM: < 30%
Canis familiaris [34]
  Activity: Non-Toxic
Rattus norvegicus [35]
  Activity: Non-Toxic
CYP1A2
  inhibition at 10 µM: < 30%
[36]
  inhibition: > 50%
CYP2D6
  inhibition at 10 µM: < 30%
Rattus norvegicus [37]
  Activity: Non-Toxic
[38]
  fraction unbound at 2 µM: 0.2 to 0.49
[39]
  half-life at 1 µM: 3.95 h
[40]
  fraction unbound at 2 µM: 0.75
Rattus norvegicus [41]
  Activity: Non-Toxic
[42]
  inhibition: > 50%
[43]
  CLint scaled: 17 mL/min/kg
Rattus norvegicus [44]
  Activity: Non-Toxic
[45]
  TDI: Not Active
[46]
  fraction unbound at 2 µM: 0.27
[47]
  CLint scaled: 3 mL/min/kg
Salmonella typhimurium
  Activity: Non-Toxic
[48]
  inhibition: > 50%
[49]
  inhibition: Active

Source: ChEMBL document CHEMBL4177539, “Discovery of N-((3R,4R)-4-Fluoro-1-(6-((3-methoxy-1-methyl-1H-pyrazol-4-yl)amino)-9-methyl-9H-purin-2-yl)pyrrolidine-3-yl)acrylamide (PF-06747775) through Structure-Based Drug Design: A High Affinity Irreversible Inhibitor Targeting Oncogenic EGFR Mutants with Selectivity over Wild-Type EGFR” (J Med Chem, 2017)
